Assay results reported in article PMC10590056, “Design and synthesis of cabotegravir derivatives bearing 1,2,3-triazole and evaluation of anti-liver cancer activity” (Frontiers in Pharmacology, 2023).
“And” between values parts separate entries of the source, which are not always exact repeats. Identical values can stand only once.

system: MCF-7 cells; assay: MTT assay for cell proliferation, MCF-7; type: cell-based; design: key to Inhibitory rate / Inhibition rate: inhibition rate = 1 - mean A490 sample/mean A490 control (fraction); details: MCF-7; fraction, per experiment
Method: (§1) HepG2, HeLa, MCF-7, and KYSE-30 cells were grown in a humidified incubator at 37°C with 5% CO2 in DMEM supplemented with 10% fetal bovine serum (FBS), […] streptomycin, and 100 U/mL penicillin.
(§2) When HepG2 cells reached 80% confluence, they were treated with 1 mL of trypsin and resuspended at a density of 10^5 cells/mL. Then, 100 μL of cell suspension was seeded into each well of a 96-well plate and incubated in a humidified atmosphere. The different concentrations of KJ-5 and KJ-12 (0, 1, 2, 4, 8, 16, and 32 μM) were added to each well, and the cells were further incubated for 48 h. Afterward, 20 μL of the MTT solution (5 mg/mL) was added to each well, and incubation was continued for another 4 h. The supernatant was discarded, and 200 μL of the DMSO solution was added to each well. The plate was shaken for 10 min in the dark. The absorbance values were measured at 490 nm using an enzyme-linked detector. The cell inhibition rate (%) was calculated using the following formula: (1-Mean A490 sample/Mean A490 control) × 100%.

SMILES	Inhibitory rate	ODtreated/ODcontrol
COc1c2n(cc(C(=O)Nc3cccc(-c4cn(-c5ccccc5OC(F)(F)F)nn4)c3)c1=O)C[C@H]1OC[C@H](C)N1C2=O [KJ-9]	0.7135	0.2865
COc1c2n(cc(C(=O)Nc3cccc(-c4cn(-c5ccccc5C(F)(F)F)nn4)c3)c1=O)C[C@H]1OC[C@H](C)N1C2=O [KJ-1]	0.4609	0.5391
COc1c2n(cc(C(=O)Nc3cccc(-c4cn(-c5ccccc5Cl)nn4)c3)c1=O)CC1OCC(C)N1C2=O (stereo not drawn) [KJ-19]	0.5839	0.4161

same assay, conditions: given as fraction; second of three experiments

SMILES	Inhibitory rate
COc1c2n(cc(C(=O)Nc3cccc(-c4cn(-c5ccccc5OC(F)(F)F)nn4)c3)c1=O)C[C@H]1OC[C@H](C)N1C2=O [KJ-9]	0.7214
COc1c2n(cc(C(=O)Nc3cccc(-c4cn(-c5ccccc5C(F)(F)F)nn4)c3)c1=O)C[C@H]1OC[C@H](C)N1C2=O [KJ-1]	0.4929
COc1c2n(cc(C(=O)Nc3cccc(-c4cn(-c5ccccc5Cl)nn4)c3)c1=O)CC1OCC(C)N1C2=O (stereo not drawn) [KJ-19]	0.531

same assay, conditions: given as fraction; third of three experiments

SMILES	Inhibition rate
COc1c2n(cc(C(=O)Nc3cccc(-c4cn(-c5ccccc5OC(F)(F)F)nn4)c3)c1=O)C[C@H]1OC[C@H](C)N1C2=O [KJ-9]	0.6147
COc1c2n(cc(C(=O)Nc3cccc(-c4cn(-c5ccccc5C(F)(F)F)nn4)c3)c1=O)C[C@H]1OC[C@H](C)N1C2=O [KJ-1]	0.3773
COc1c2n(cc(C(=O)Nc3cccc(-c4cn(-c5ccccc5Cl)nn4)c3)c1=O)CC1OCC(C)N1C2=O (stereo not drawn) [KJ-19]	0.6163

same assay, conditions: preliminary screening, MCF-7, 16 μM, 48 h, mean±SD; unit not given

SMILES	Inhibition rate (16μM), 48 h, MCF-7
COc1c2n(cc(C(=O)Nc3cccc(-c4cn(-c5ccccc5OC(F)(F)F)nn4)c3)c1=O)C[C@H]1OC[C@H](C)N1C2=O [KJ-9]	68.32±5.95
COc1c2n(cc(C(=O)Nc3cccc(-c4cn(-c5ccccc5C(F)(F)F)nn4)c3)c1=O)C[C@H]1OC[C@H](C)N1C2=O [KJ-1]	44.37±5.97
COc1c2n(cc(C(=O)Nc3cccc(-c4cn(-c5ccccc5Cl)nn4)c3)c1=O)CC1OCC(C)N1C2=O (stereo not drawn) [KJ-19]	57.71±4.31

same assay, conditions: second of three experiments

SMILES	ODtreated/ODcontrol
COc1c2n(cc(C(=O)Nc3cccc(-c4cn(-c5ccccc5OC(F)(F)F)nn4)c3)c1=O)C[C@H]1OC[C@H](C)N1C2=O [KJ-9]	0.2786
COc1c2n(cc(C(=O)Nc3cccc(-c4cn(-c5ccccc5C(F)(F)F)nn4)c3)c1=O)C[C@H]1OC[C@H](C)N1C2=O [KJ-1]	0.5071
COc1c2n(cc(C(=O)Nc3cccc(-c4cn(-c5ccccc5Cl)nn4)c3)c1=O)CC1OCC(C)N1C2=O (stereo not drawn) [KJ-19]	0.469

same assay, conditions: third of three experiments

SMILES	ODtreated/ODcontrol
COc1c2n(cc(C(=O)Nc3cccc(-c4cn(-c5ccccc5OC(F)(F)F)nn4)c3)c1=O)C[C@H]1OC[C@H](C)N1C2=O [KJ-9]	0.3853
COc1c2n(cc(C(=O)Nc3cccc(-c4cn(-c5ccccc5C(F)(F)F)nn4)c3)c1=O)C[C@H]1OC[C@H](C)N1C2=O [KJ-1]	0.6227
COc1c2n(cc(C(=O)Nc3cccc(-c4cn(-c5ccccc5Cl)nn4)c3)c1=O)CC1OCC(C)N1C2=O (stereo not drawn) [KJ-19]	0.3837

system: HepG2 cells; assay: MTT assay for cell proliferation and cytotoxicity, HepG2; type: cell-based; design: key to Inhibitory rate: inhibition rate = 1 - mean A490 sample/mean A490 control (fraction); details: HepG2, 48 h, MTT
Method: as §1, §2

SMILES	IC50
COc1c2n(cc(C(=O)Nc3cccc(-c4cn(-c5ccccc5OC(F)(F)F)nn4)c3)c1=O)C[C@H]1OC[C@H](C)N1C2=O [KJ-9]	5.06 ± 0.06 µM
COc1c2n(cc(C(=O)Nc3cccc(-c4cn(-c5ccccc5C(F)(F)F)nn4)c3)c1=O)C[C@H]1OC[C@H](C)N1C2=O [KJ-1]	13.6 ± 1.09 µM
COc1c2n(cc(C(=O)Nc3cccc(-c4cn(-c5ccccc5Cl)nn4)c3)c1=O)CC1OCC(C)N1C2=O (stereo not drawn) [KJ-19]	7.5 ± 1.19 µM

same assay, conditions: HepG2; fraction, per experiment

SMILES	Inhibitory rate	ODtreated/ODcontrol
COc1c2n(cc(C(=O)Nc3cccc(-c4cn(-c5ccccc5OC(F)(F)F)nn4)c3)c1=O)C[C@H]1OC[C@H](C)N1C2=O [KJ-9]	0.8207 and 0.8024 and 0.7986	0.1793 and 0.1976 and 0.2014
COc1c2n(cc(C(=O)Nc3cccc(-c4cn(-c5ccccc5C(F)(F)F)nn4)c3)c1=O)C[C@H]1OC[C@H](C)N1C2=O [KJ-1]	0.48 and 0.4907 and 0.4342	0.52 and 0.5093 and 0.5658
COc1c2n(cc(C(=O)Nc3cccc(-c4cn(-c5ccccc5Cl)nn4)c3)c1=O)CC1OCC(C)N1C2=O (stereo not drawn) [KJ-19]	0.7209 and 0.735 and 0.7422	0.2791 and 0.265 and 0.2578

same assay, conditions: preliminary screening, HepG2, 16 μM, 48 h, mean±SD; unit not given

SMILES	Inhibition rate (16μM), 48 h, HepG2
COc1c2n(cc(C(=O)Nc3cccc(-c4cn(-c5ccccc5OC(F)(F)F)nn4)c3)c1=O)C[C@H]1OC[C@H](C)N1C2=O [KJ-9]	80.72±1.18
COc1c2n(cc(C(=O)Nc3cccc(-c4cn(-c5ccccc5C(F)(F)F)nn4)c3)c1=O)C[C@H]1OC[C@H](C)N1C2=O [KJ-1]	46.83±3.00
COc1c2n(cc(C(=O)Nc3cccc(-c4cn(-c5ccccc5Cl)nn4)c3)c1=O)CC1OCC(C)N1C2=O (stereo not drawn) [KJ-19]	73.27±1.09

system: KYSE-30 cells; assay: MTT assay for cell proliferation, KYSE-30; type: cell-based; design: key to Inhibitory rate: inhibition rate = 1 - mean A490 sample/mean A490 control (fraction); details: KYSE-30, first of three experiments
Method: as §1, §2

SMILES	ODtreated/ODcontrol
COc1c2n(cc(C(=O)Nc3cccc(-c4cn(-c5ccccc5OC(F)(F)F)nn4)c3)c1=O)C[C@H]1OC[C@H](C)N1C2=O [KJ-9]	0.3517
COc1c2n(cc(C(=O)Nc3cccc(-c4cn(-c5ccccc5C(F)(F)F)nn4)c3)c1=O)C[C@H]1OC[C@H](C)N1C2=O [KJ-1]	0.5729
COc1c2n(cc(C(=O)Nc3cccc(-c4cn(-c5ccccc5Cl)nn4)c3)c1=O)CC1OCC(C)N1C2=O (stereo not drawn) [KJ-19]	0.43

same assay, conditions: KYSE-30, given as fraction; first of three experiments

SMILES	Inhibitory rate
COc1c2n(cc(C(=O)Nc3cccc(-c4cn(-c5ccccc5OC(F)(F)F)nn4)c3)c1=O)C[C@H]1OC[C@H](C)N1C2=O [KJ-9]	0.6483
COc1c2n(cc(C(=O)Nc3cccc(-c4cn(-c5ccccc5C(F)(F)F)nn4)c3)c1=O)C[C@H]1OC[C@H](C)N1C2=O [KJ-1]	0.4271
COc1c2n(cc(C(=O)Nc3cccc(-c4cn(-c5ccccc5Cl)nn4)c3)c1=O)CC1OCC(C)N1C2=O (stereo not drawn) [KJ-19]	0.57

same assay, conditions: KYSE-30, given as fraction; second of three experiments

SMILES	Inhibitory rate
COc1c2n(cc(C(=O)Nc3cccc(-c4cn(-c5ccccc5OC(F)(F)F)nn4)c3)c1=O)C[C@H]1OC[C@H](C)N1C2=O [KJ-9]	0.6765
COc1c2n(cc(C(=O)Nc3cccc(-c4cn(-c5ccccc5C(F)(F)F)nn4)c3)c1=O)C[C@H]1OC[C@H](C)N1C2=O [KJ-1]	0.3646
COc1c2n(cc(C(=O)Nc3cccc(-c4cn(-c5ccccc5Cl)nn4)c3)c1=O)CC1OCC(C)N1C2=O (stereo not drawn) [KJ-19]	0.5211

same assay, conditions: KYSE-30, given as fraction; third of three experiments

SMILES	Inhibitory rate
COc1c2n(cc(C(=O)Nc3cccc(-c4cn(-c5ccccc5OC(F)(F)F)nn4)c3)c1=O)C[C@H]1OC[C@H](C)N1C2=O [KJ-9]	0.5914
COc1c2n(cc(C(=O)Nc3cccc(-c4cn(-c5ccccc5C(F)(F)F)nn4)c3)c1=O)C[C@H]1OC[C@H](C)N1C2=O [KJ-1]	0.3875
COc1c2n(cc(C(=O)Nc3cccc(-c4cn(-c5ccccc5Cl)nn4)c3)c1=O)CC1OCC(C)N1C2=O (stereo not drawn) [KJ-19]	0.5717

same assay, conditions: KYSE-30, second of three experiments

SMILES	ODtreated/ODcontrol
COc1c2n(cc(C(=O)Nc3cccc(-c4cn(-c5ccccc5OC(F)(F)F)nn4)c3)c1=O)C[C@H]1OC[C@H](C)N1C2=O [KJ-9]	0.3235
COc1c2n(cc(C(=O)Nc3cccc(-c4cn(-c5ccccc5C(F)(F)F)nn4)c3)c1=O)C[C@H]1OC[C@H](C)N1C2=O [KJ-1]	0.6354
COc1c2n(cc(C(=O)Nc3cccc(-c4cn(-c5ccccc5Cl)nn4)c3)c1=O)CC1OCC(C)N1C2=O (stereo not drawn) [KJ-19]	0.4789

same assay, conditions: KYSE-30, third of three experiments

SMILES	ODtreated/ODcontrol
COc1c2n(cc(C(=O)Nc3cccc(-c4cn(-c5ccccc5OC(F)(F)F)nn4)c3)c1=O)C[C@H]1OC[C@H](C)N1C2=O [KJ-9]	0.4086
COc1c2n(cc(C(=O)Nc3cccc(-c4cn(-c5ccccc5C(F)(F)F)nn4)c3)c1=O)C[C@H]1OC[C@H](C)N1C2=O [KJ-1]	0.6125
COc1c2n(cc(C(=O)Nc3cccc(-c4cn(-c5ccccc5Cl)nn4)c3)c1=O)CC1OCC(C)N1C2=O (stereo not drawn) [KJ-19]	0.4283

same assay, conditions: preliminary screening, KYSE-30, 16 μM, 48 h, mean±SD; unit not given

SMILES	Inhibition rate (16μM), 48 h, KYSE-30
COc1c2n(cc(C(=O)Nc3cccc(-c4cn(-c5ccccc5OC(F)(F)F)nn4)c3)c1=O)C[C@H]1OC[C@H](C)N1C2=O [KJ-9]	63.87±4.34
COc1c2n(cc(C(=O)Nc3cccc(-c4cn(-c5ccccc5C(F)(F)F)nn4)c3)c1=O)C[C@H]1OC[C@H](C)N1C2=O [KJ-1]	39.31±3.16
COc1c2n(cc(C(=O)Nc3cccc(-c4cn(-c5ccccc5Cl)nn4)c3)c1=O)CC1OCC(C)N1C2=O (stereo not drawn) [KJ-19]	55.43±2.87

system: HeLa cells; assay: MTT assay for cell proliferation, HeLa; type: cell-based; design: key to Inhibitory rate: inhibition rate = 1 - mean A490 sample/mean A490 control (fraction); details: Hela; fraction, per experiment
Method: as §1, §2

SMILES	Inhibitory rate	ODtreated/ODcontrol
COc1c2n(cc(C(=O)Nc3cccc(-c4cn(-c5ccccc5OC(F)(F)F)nn4)c3)c1=O)C[C@H]1OC[C@H](C)N1C2=O [KJ-9]	0.7654 and 0.7384 and 0.7732	0.2346 and 0.2616 and 0.2268
COc1c2n(cc(C(=O)Nc3cccc(-c4cn(-c5ccccc5C(F)(F)F)nn4)c3)c1=O)C[C@H]1OC[C@H](C)N1C2=O [KJ-1]	0.456 and 0.4789 and 0.3414	0.544 and 0.5211 and 0.6586
COc1c2n(cc(C(=O)Nc3cccc(-c4cn(-c5ccccc5Cl)nn4)c3)c1=O)CC1OCC(C)N1C2=O (stereo not drawn) [KJ-19]	0.6257 and 0.6335 and 0.6346	0.3743 and 0.3665 and 0.3654

same assay, conditions: preliminary screening, Hela, 16 μM, 48 h, mean±SD; unit not given

SMILES	Inhibition rate (16μM), 48 h, Hela
COc1c2n(cc(C(=O)Nc3cccc(-c4cn(-c5ccccc5OC(F)(F)F)nn4)c3)c1=O)C[C@H]1OC[C@H](C)N1C2=O [KJ-9]	75.9±1.83
COc1c2n(cc(C(=O)Nc3cccc(-c4cn(-c5ccccc5C(F)(F)F)nn4)c3)c1=O)C[C@H]1OC[C@H](C)N1C2=O [KJ-1]	44.98±3.26
COc1c2n(cc(C(=O)Nc3cccc(-c4cn(-c5ccccc5Cl)nn4)c3)c1=O)CC1OCC(C)N1C2=O (stereo not drawn) [KJ-19]	63.13±0.49
